Measurements published in patent publication US20110098323A1, “INHIBITORS OF BACTERIAL BIOFILM FORMATION” (MICROBIOTIX, INC., priority 2009, published 2011).
Like-named read-outs stand apart in the source and are kept apart here.

Assays:
Assay in all cases: MBIC/MIC secondary assay
S. aureus strain NRS-77 = assay type: cell-based, Staphylococcus aureus; settings: for MIC: Staphylococcus aureus, NRS77
Experimental: (§1) Assays for detecting and measuring bacterial biofilm formation are known in the art. An example of a biofilm formation assay useful in detecting and characterizing biofilm inhibitor compounds is described in Example 1, infra. Briefly, bacterial cells are inoculated into growth medium in individual wells of a 96-well assay plate in the presence or absence of a compound (known biofilm inhibitor or test compound). After incubation for a specified time, growth medium and non-biofilm bacterial cells are removed from each of the wells. The bacterial cells in any biofilms that are adhered to the surface of a well are fixed by addition of ethanol. The ethanol is removed, and the fixed biofilm bacteria cells are stained with crystal violet (CV). The intensity of CV staining is directly correlated with bacterial biofilm formation and is measured in the wells by reading the optical density at 600 nm (OD600). The difference in biofilm formation between untreated control and treated cultures provides an indication of relative biofilm inhibition activity (anti-biofilm activity). Use of different concentrations of an inhibitor in multiple and otherwise duplicate cultures permits determination of a compound's Minimal Biofilm Inhibitory Concentration (MBIC), which is defined herein as the lowest concentration of a compound that inhibits biofilm formation by at least 80% (i.e., ≧80%) compared to untreated control cultures. […]
(§2) A secondary assay provided a quantitative measure of both anti-biofilm activity and antibacterial activity in terms of the Minimal Biofilm Inhibitory Concentration (MBIC) and the Minimal Inhibitory Concentration (MIC), respectively. The MBIC and MIC are defined as the lowest compound concentrations that inhibit biofilm formation and bacterial growth, respectively, by at least 80% (i.e., ≧80%). The MBIC/MIC assay is formatted in a manner that is similar to the Microbroth dilution assays described by the Clinical and Laboratory Standards Institute (CLSI; formerly NCCLS) in protocol M7-A7. The growth conditions were optimized for biofilm growth in 96-well assay plates such that the resulting CV staining was within the linear range of detection. Therefore, the MBIC/MIC assay provided a stringent measure of anti-biofilm activity.
(§3) The assay was adapted for several biofilm-forming strains of S. epidermidis, S. aureus, Enterococcus faecalis, and Pseudomonas aeruginosa. Briefly, 96-well assay plates contained a two-fold dilution series for up to 8 compounds (one compound/row) and untreated controls (concentration range of 0.2 μM-100 μM). The assay plates were inoculated with the test bacterial species, e.g., S. epidermidis 18972 (0.5×TSB, 0.25% glucose) or S. aureus ATCC 35556 (0.5×TSB, 1% glucose). The inocula were prepared by diluting an overnight culture 1:100 in fresh media, which corresponds to approximately 5×10^6 cells/well. After inoculation, the assay plates were sealed with foil tape and incubated for 18 h-20 h at 37° C. The assay plates were processed, and the percent inhibition of growth (% INH-Growth) and percent inhibition of biofilm formation (% INH-Biofilm) were calculated as described above. […] Compounds with an MBIC≦10 μM and an MIC/MBIC ratio≧8 for either S. epidermidis or S. aureus were designated as validated hits.
Minimal Biofilm Inhibitory Concentration (MBIC) and Minimal Inhibitory Concentration (MIC) of the compounds in Table 3 were determined against various strains of biofilm-forming bacteria.

[1] = test system: Escherichia coli (ATCC 25922); assay type: cell-based; settings: for MIC: Escherichia coli, ATCC25922
Experimental: as §1, §2, §3
(§4) Compounds were also tested for anti-biofilm activity against a strain of biofilm-forming, vancomycin-resistant Enterococcus faecalis strain (ATCC 51299), the Gram-negative biofilm-forming opportunistic pathogen Pseudomonas aeruginosa PAO1 ([…]), and a Gram-negative, biofilm-forming strain of Escherichia coli (ATCC 25922).

[2] = test system: Pseudomonas aeruginosa PAO1; assay type: cell-based; settings: for MIC: Pseudomonas aeruginosa, PAO1
Experimental: as §1, §2, §3, §4

[3] = test system: vancomycin-resistant Enterococcus faecalis strain (ATCC 51299); assay type: cell-based; settings: for MIC: Enterococcus faecalis, ATCC51299
Experimental: as §1, §2, §3, §4

MIC (S. aureus strain NRS-77; S. aureus strain NRS-77, read-out: MIC) [µM]	MIC ([1]; E. coli strain 25922, read-out: MIC) [µM]	MIC ([2]; P. aeruginosa strain PA01, read-out: MIC) [µM]	MIC ([3]; E. faecalis strain 51299, read-out: MIC) [µM]	SMILES	MBIC (S. aureus strain NRS-77; S. aureus strain NRS-77) [µM]	MIC (S. aureus strain NRS-77) [µM]	MBIC ([1]; E. coli strain 25922)	MIC [1] [µM]	MBIC ([2]; P. aeruginosa strain PA01)	MIC [2] [µM]	MBIC ([3]; E. faecalis strain 51299) [µM]	MIC [3] [µM]
–	–	–	–	CCOc1cc(/C=C2\SC(=S)N(c3ccc(F)nc3)C2=O)ccc1O [Compound 40, 3-(6-fluoropyridin-3-yl)-5-(3-ethoxy-4-hydroxybenzylidene)-2-thioxothiazolidin-4-one]	6.3	≥ 100	≧100 μM	≥ 100	≧100 μM	≥ 100	6.3	≥ 100
–	–	–	–	CCOc1cc(/C=C2\SC(=S)N(c3cccnc3)C2=O)ccc1O [Compound 36, 3-(pyridin-3-yl)-5-(3-ethoxy-4-hydroxybenzylidene)-2-thioxothiazolidin-4-one]	12.5	≥ 100	≧100 μM	≥ 100	≧100 μM	≥ 100	12.5	≥ 100
–	–	–	–	CCOc1cc(/C=C2\SC(=S)N(c3ccc(F)cc3)C2=O)ccc1O [Compound 4, 3-(4-fluorophenyl)-5-(3-ethoxy-4-hydroxybenzylidene)-2-thioxothiazolidin-4-one]	25	≥ 100	≧100 μM	≥ 100	≧100 μM	≥ 100	12.5	≥ 100
–	–	–	–	CCOc1cc(/C=C2\SC(=S)N(c3cccc(C#N)c3)C2=O)ccc1O [Compound 34, 3-(3-cyanophenyl)-5-(3-ethoxy-4-hydroxybenzylidene)-2-thioxothiazolidin-4-one]	12.5	≥ 100	≧100 μM	≥ 100	≧100 μM	≥ 100	12.5	≥ 100
–	–	–	–	CCOc1cc(/C=C2\SC(=S)N(c3cccc(F)c3)C2=O)ccc1O [Compound 8, 3-(3-fluorophenyl)-5-(3-ethoxy-4-hydroxybenzylidene)-2-thioxothiazolidin-4-one]	25	≥ 100	≧100 μM	≥ 100	≧100 μM	≥ 100	25	≥ 100
≥ 100	≥ 100	≥ 100	≥ 100	C=CCOc1cc(/C=C2\SC(=S)N(c3ccc(F)cc3)C2=O)ccc1O [Compound 29, 3-(4-fluorophenyl)-5-(3-allyloxy-4-hydroxybenzylidene)-2-thioxothiazolidin-4-one]	12.5	–	≧100 μM	–	≧100 μM	–	12.5	–
